{"source": "paper PMC7835349", "about": "(Communications Biology, 2021)", "key": {"RS4;11 xenograft": {"system": "RS4;11 xenograft", "test": "RS4;11 mouse xenograft efficacy (tumour volume)", "format": "in vivo, C.B-17 SCID mouse", "set-up": "key to tumour volume, individual animals: tumour volume in mm³, length × width²/0.52", "details": "for tumour volume, individual animals: 10 mg/kg; for Tumour volume, Geo Mean: RS4;11 xenograft", "procedure": "Female C.B.−17 SCID mice were purchased from Charles River Laboratories. Mice were 5–8 weeks old at the time of tumour implantation. All xenograft studies were conducted at our Association for the Assessment and Accreditation of Laboratory Animal Care accredited facility in Waltham, MA in accordance with ethical regulations described in the guidelines established by the internal Institutional Animal Care and Use Committee. The dendrimer conjugates were formulated in citrate/phosphate buffer pH 5.0, diluted 1:10 with 5% glucose containing 1% w/v Kolliphor HS15, and AZD4320 was formulated in 30% HP-β-CD and dosed as a weekly intravenous (IV) administration at a volume of 5 ml/kg at the indicated doses. Five million RS4;11, five million SUDHL-4 or five million OCI-LY-10 cells were injected subcutaneously in the right flank of mice in a volume of 0.1 ml. Tumour volumes (measured by caliper), animal body weight, and tumor condition were recorded twice weekly for the duration of the study. The tumour volume was calculated (taking length to be the longest diameter across the tumour and width to be the corresponding perpendicular diameter) using the formula: length (mm) x width (mm)^2/0.52. For efficacy studies, mice were randomized based on tumour volumes using stratified sampling and enrolled into control and treatment groups. Tumour growth inhibition from the start of treatment was quantified by measuring the difference in tumour volume between control and treated groups. Survival analysis was evaluated using Mantel-Cox test. Tumours were also taken for bioanalysis."}, "telemetered rats": {"system": "telemetered rats", "test": "Conscious rat telemetry (QRS amplitude, blood pressure, tolerability);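 as to all read-outs here: male Han Wistar rats carrying implanted telemetry transmitters, with ECG and arterial pressure recorded continuously while unrestrained in their home cage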", "details": "for QRS amplitude (mV change): individual rats; for QRS amplitude (mV change), Mean: mean of rats"}, "[1]": {"details": "rat, AZD4320 10 mg/kg, 0 h post dose"}, "[2]": {"details": "rat, Dose 10 mg/kg (AZD4320 equivalent 10 for AZD4320, 3 for conjugates)"}}, "note": "“And” between values parts separate entries of the source, which are not always exact repeats. Equal values may be shown once."}
{"smiles": "CN(CCO)CCC(CSc1ccccc1)Nc1ccc(S(=O)(=O)NC(=O)c2ccc(N3CCC(C(O)c4ccccc4-c4ccc(Cl)cc4)CC3)cc2)cc1S(=O)(=O)C(F)(F)F", "note": "(stereo not drawn) [AZD4320]", "values": [{"measurement": "tumour volume, individual animals", "setting": "RS4;11 xenograft; Day 38, in mm³ (unit assumed)", "value": "591 and 667 and 633 and 678"}, {"measurement": "tumour volume, individual animals", "setting": "RS4;11 xenograft; Day 41, in mm³ (unit assumed)", "value": "365 and 322 and 378 and 334"}, {"measurement": "tumour volume, individual animals", "setting": "RS4;11 xenograft; Day 45, in mm³ (unit assumed)", "value": "218 and 235 and 397 and 259"}, {"measurement": "tumour volume, individual animals", "setting": "RS4;11 xenograft; Day 48", "value": "0 (2×) and 160 and 156"}, {"measurement": "tumour volume, individual animals", "setting": "RS4;11 xenograft; Day 52", "value": "0 (3×) and 144"}, {"measurement": "tumour volume, individual animals", "setting": "RS4;11 xenograft; Day 55", "value": "0 (3×) and 87"}, {"measurement": "tumour volume, individual animals", "setting": "RS4;11 xenograft; Day 59, in mm³ (unit assumed)", "value": "144 and 155 and 220 and 196"}, {"measurement": "tumour volume, individual animals", "setting": "RS4;11 xenograft; Day 63, in mm³ (unit assumed)", "value": "388 and 353 and 396 and 530"}, {"measurement": "tumour volume, individual animals", "setting": "RS4;11 xenograft; Day 66, in mm³ (unit assumed)", "value": "257 and 221 and 387 and 438"}, {"measurement": "tumour volume, individual animals", "setting": "RS4;11 xenograft; Day 69, in mm³ (unit assumed)", "value": "351 and 316 and 514 and 702"}, {"measurement": "tumour volume, individual animals", "setting": "RS4;11 xenograft; Day 73, in mm³ (unit assumed)", "value": "1003 and 568 and 1069 and 1242"}, {"measurement": "anti-tumour activity", "setting": "RS4;11 xenograft; RS4;11 tumours, IV, 10 mg/kg or equivalent", "value": "complete regression"}, {"measurement": "Tumour volume, Geo Mean", "setting": "RS4;11 xenograft; 10 mg/kg or equivalent, day 29, in mm³ (unit assumed)", "value": 450.827}, {"measurement": "Tumour volume, Geo Mean", "setting": "RS4;11 xenograft; 10 mg/kg or equivalent, day 31, in mm³ (unit assumed)", "value": 419.877}, {"measurement": "Tumour volume, Geo Mean", "setting": "RS4;11 xenograft; 10 mg/kg or equivalent, day 32, in mm³ (unit assumed)", "value": 128.263}, {"measurement": "Tumour volume, Geo Mean", "setting": "RS4;11 xenograft; 10 mg/kg or equivalent, day 34, in mm³ (unit assumed)", "value": 1}, {"measurement": "Tumour volume, Geo Mean", "setting": "RS4;11 xenograft; 10 mg/kg or equivalent, day 38, in mm³ (unit assumed)", "value": 1}, {"measurement": "Tumour volume, Geo Mean", "setting": "RS4;11 xenograft; 10 mg/kg or equivalent, day 41, in mm³ (unit assumed)", "value": 1}, {"measurement": "Tumour volume, Geo Mean", "setting": "RS4;11 xenograft; 10 mg/kg or equivalent, day 45, in mm³ (unit assumed)", "value": 1}, {"measurement": "Tumour volume, Geo Mean", "setting": "RS4;11 xenograft; 10 mg/kg or equivalent, day 48, in mm³ (unit assumed)", "value": 1}, {"measurement": "Tumour volume, Geo Mean", "setting": "RS4;11 xenograft; 10 mg/kg or equivalent, day 56, in mm³ (unit assumed)", "value": 4.217}, {"measurement": "Tumour volume, Geo Mean", "setting": "RS4;11 xenograft; 10 mg/kg or equivalent, day 59, in mm³ (unit assumed)", "value": 31.9033}, {"measurement": "decrease in QRS amplitude", "setting": "telemetered rats; rat, 10 mg/kg AZD4320", "value": 40, "unit": "%"}, {"measurement": "rats in which dose was tolerated", "setting": "telemetered rats; rat, 10 mg/kg AZD4320, 8 rats evaluated", "value": "6 of the 8"}, {"measurement": "QRS amplitude (mV change)", "setting": "telemetered rats; [1]", "value": 0, "unit": "mV"}, {"measurement": "QRS amplitude (mV change), Mean", "setting": "telemetered rats; [1]", "value": 0, "unit": "mV"}, {"measurement": "QRS amplitude (mV change)", "setting": "telemetered rats; rat, AZD4320 10 mg/kg, 0.5 h post dose, 10 mg/kg", "value": "0.05 mV and -0.49 mV (2×) and -0.03 mV and 0.27 mV and -0.09 mV"}, {"measurement": "QRS amplitude (mV change), Mean", "setting": "telemetered rats; rat, AZD4320 10 mg/kg, 0.5 h post dose", "value": -0.13, "unit": "mV"}, {"measurement": "QRS amplitude (mV change)", "setting": "telemetered rats; rat, AZD4320 10 mg/kg, 1 h post dose, 10 mg/kg", "value": "-0.55 mV and -0.92 mV and 0.04 mV and -0.24 mV and -0.19 mV and -0.87 mV"}, {"measurement": "QRS amplitude (mV change), Mean", "setting": "telemetered rats; rat, AZD4320 10 mg/kg, 1 h post dose", "value": -0.46, "unit": "mV"}, {"measurement": "QRS amplitude (mV change)", "setting": "telemetered rats; rat, AZD4320 10 mg/kg, 1.5 h post dose, 10 mg/kg", "value": "-0.76 mV and -0.96 mV (2×) and 0.29 mV and -0.3 mV and -0.18 mV"}, {"measurement": "QRS amplitude (mV change), Mean", "setting": "telemetered rats; rat, AZD4320 10 mg/kg, 1.5 h post dose", "value": -0.48, "unit": "mV"}, {"measurement": "QRS amplitude (mV change)", "setting": "telemetered rats; rat, AZD4320 10 mg/kg, 2 h post dose, 10 mg/kg", "value": "-0.73 mV and -0.96 mV and -0.38 mV and -0.26 mV (2×) and -1.03 mV"}, {"measurement": "QRS amplitude (mV change), Mean", "setting": "telemetered rats; rat, AZD4320 10 mg/kg, 2 h post dose", "value": -0.60, "unit": "mV"}, {"measurement": "QRS amplitude (mV change)", "setting": "telemetered rats; rat, AZD4320 10 mg/kg, 3 h post dose, 10 mg/kg", "value": "-0.79 mV and -0.63 mV and -0.28 mV and -0.4 mV and -0.48 mV and -0.99 mV"}, {"measurement": "QRS amplitude (mV change), Mean", "setting": "telemetered rats; rat, AZD4320 10 mg/kg, 3 h post dose", "value": -0.60, "unit": "mV"}, {"measurement": "QRS amplitude (mV change)", "setting": "telemetered rats; rat, AZD4320 10 mg/kg, 3.5 h post dose, 10 mg/kg", "value": "-0.8 mV and -0.81 mV and -0.54 mV and -0.38 mV and -0.47 mV and -1 mV"}, {"measurement": "QRS amplitude (mV change), Mean", "setting": "telemetered rats; rat, AZD4320 10 mg/kg, 3.5 h post dose", "value": -0.67, "unit": "mV"}, {"measurement": "QRS amplitude (mV change)", "setting": "telemetered rats; rat, AZD4320 10 mg/kg, 4 h post dose, 10 mg/kg", "value": "-0.8 mV and -1.02 mV and -0.16 mV and -0.35 mV and -0.65 mV and -0.98 mV"}, {"measurement": "QRS amplitude (mV change), Mean", "setting": "telemetered rats; rat, AZD4320 10 mg/kg, 4 h post dose", "value": -0.66, "unit": "mV"}, {"measurement": "QRS amplitude (mV change)", "setting": "telemetered rats; rat, AZD4320 10 mg/kg, 6 h post dose, 10 mg/kg", "value": "-0.76 mV and -1 mV and -0.2 mV and -0.16 mV and -0.57 mV and -0.7 mV"}, {"measurement": "QRS amplitude (mV change), Mean", "setting": "telemetered rats; rat, AZD4320 10 mg/kg, 6 h post dose", "value": -0.57, "unit": "mV"}, {"measurement": "QRS amplitude (mV change)", "setting": "telemetered rats; rat, AZD4320 10 mg/kg, 8 h post dose, 10 mg/kg", "value": "-0.63 mV (3×) and 0.08 mV and -0.08 mV and -0.57 mV"}, {"measurement": "QRS amplitude (mV change), Mean", "setting": "telemetered rats; rat, AZD4320 10 mg/kg, 8 h post dose", "value": -0.41, "unit": "mV"}, {"measurement": "QRS amplitude (mV change)", "setting": "telemetered rats; rat, AZD4320 10 mg/kg, 10 h post dose, 10 mg/kg", "value": "-0.56 mV and -0.75 mV and 0.54 mV and 0.03 mV and -0.61 mV and -0.59 mV"}, {"measurement": "QRS amplitude (mV change), Mean", "setting": "telemetered rats; rat, AZD4320 10 mg/kg, 10 h post dose", "value": -0.32, "unit": "mV"}, {"measurement": "QRS amplitude (mV change)", "setting": "telemetered rats; rat, AZD4320 10 mg/kg, 12 h post dose, 10 mg/kg", "value": "-0.6 mV and -0.97 mV and -0.25 mV and 0.18 mV and -0.42 mV and -0.58 mV"}, {"measurement": "QRS amplitude (mV change), Mean", "setting": "telemetered rats; rat, AZD4320 10 mg/kg, 12 h post dose", "value": -0.44, "unit": "mV"}, {"measurement": "QRS amplitude (mV change)", "setting": "telemetered rats; rat, AZD4320 10 mg/kg, 16 h post dose, 10 mg/kg", "value": "-0.44 mV and -0.8 mV and 0.61 mV and -0.14 mV and -0.6 mV and -0.72 mV"}, {"measurement": "QRS amplitude (mV change), Mean", "setting": "telemetered rats; rat, AZD4320 10 mg/kg, 16 h post dose", "value": -0.35, "unit": "mV"}, {"measurement": "QRS amplitude (mV change)", "setting": "telemetered rats; rat, AZD4320 10 mg/kg, 24 h post dose, 10 mg/kg", "value": "-0.56 mV and -0.96 mV and -0.74 mV and -0.13 mV and -0.57 mV and -0.76 mV"}, {"measurement": "QRS amplitude (mV change), Mean", "setting": "telemetered rats; rat, AZD4320 10 mg/kg, 24 h post dose", "value": -0.62, "unit": "mV"}, {"measurement": "QRS amplitude (mV change), Mean", "setting": "telemetered rats; rat, AZD4320 10 mg/kg, […] post dose", "value": -0.58, "unit": "mV"}, {"measurement": "Blood pressure decrease", "setting": "telemetered rats; [2]", "value": "Yes"}, {"measurement": "QRS amplitude decrease", "setting": "telemetered rats; [2]", "value": "Yes"}, {"measurement": "Tolerated?", "setting": "telemetered rats; [2]", "value": "6/8"}, {"measurement": "effect on QRS amplitude", "setting": "telemetered rats; telemetered rat, AZD4320 10 mg/kg, conjugates 30 mg/kg IV", "value": "marked and prolonged reduction in QRS amplitude"}]}
